3 compounds from US9163044B2, “Carbon monoxide releasing molecules and uses thereof” (Alfama, Inc., priority 2011, dated 2015) can be followed below.

Data set [1] is described as follows: tissue CO distribution in CD-1 female mice. Particulars: for CO levels in the liver compared with blood, kidney, heart and lung tissues (in words): 50 mg/kg i.v., CD-1 female mice. Format: in vivo. From the text:
Carbon monoxide-releasing molecules (CO-RMs) are carriers of carbon monoxide (CO) and can release CO in vivo. CO can bind to hemoglobin in the blood and to various heme proteins in cells. Vreman et al. Anal Biochem 341:280-289 describes a method to release CO bound to tissues into the gas phase, and quantify it using GC-RCP chromatography. We applied this methodology to assay CO in various tissues of mice treated with CO-RMs (see Example 2, herein). However, since the CO release method of Vreman (in vitro incubation with sulfosalicylic acid) also releases CO from the CO-RM, the CO released from tissue samples represents CO bound to tissue proteins and CO from CO-RM compound accumulated in tissue. For CO-RM compounds with slow CO release rates in vivo, the CO measured at the earliest sampling point (5 min after CO-RM administration) may therefore mostly be a measure for the tissue distribution of the intact CO-RM.
The compound was dissolved in PBS and the acids neutralized with 3 eq. NaOH (from a NaOH stock solution 2.5M). The pH was brought down to about 7.5 by adding HCl (from a stock solution 1 M). The compound was then administered i.v. (50 mg/kg in 150 μL) to two CD-1 female mice (Charles River). The mice were warmed for ten minutes under an infrared lamp to facilitate the i.v. administration into a tail vein. Five and twenty minutes after the dosing, the two mice were anesthetized with IsoFluorane, and the blood was collected from the retro-orbital plexus using a Pasteur pipette containing ˜20 μL of heparin solution. The animal was opened; the portal vein was cut and the organs were perfused by injecting 10-15 mL of cold PBS in the left ventricle of the heart. Then the heart, kidneys, liver and lung were collected, briefly washed with potassium phosphate buffer, dried with a paper towel and snap frozen in liquid nitrogen. Samples of the freshly collected blood were transferred to AVOXimeter 4000 cuvettes (ITC) to measure the levels of carboxyhemoglobin (COHb), oxyhemoglobin (O2Hb) and methemoglobin (MetHb) using a portable AVOXimeter 4000 CO-oximeter. The results are shown as mean percentage of total hemoglobin species in circulation. The organs and blood were conserved at −20° C. until the CO quantization was done.
For CO quantization, the protocol described by Vreman et al was followed. The organs were cut into small pieces, which were weighed and 4 volumes of water (a volume corresponding to four times the weight of the tissue sample) were added to each organ sample. The tissues were homogenized using a tissue tearer. Aliquots of homogenate ([…]) were placed into vials to which were added water ([…]) and sulfosalicylic acid (SSA, 5 μL, 30% [wt/vol]) immediately before they were closed with a gas-tight septum cap. The vials were incubated on ice for at least 20 min before being analyzed by GC-RCP (in later experiments, the incubation time was extended to 45 minutes). The amount of CO was calculated using a calibration curve prepared from CO standards. […] COHb was determined using an oximeter (AVOXimeter 4000, USA).
Table 6 provides the CO distribution in blood, heart, liver, lung and kidney following Compound 3b administration at 50 mg/kg by […]. CO was assayed by GC-RCP, 5 and 20 minutes after administration of the compound. The CO concentration in the several organs is normalized to the amount of CO quantified in the blood (CO concentration as fraction of concentration in blood 50 mg/kg Compound 3b injected i.v. at t=0; CO assayed in tissues by GC at t=5 min and t=20 min).

The test system of data set [2] is APAP-induced acute liver failure (ALF) model. The experiment in a line: APAP-induced acute liver failure (ALF) model, sublethal (300 mg/kg APAP i.p.). It counts as in vivo, C57Bl/6 male mice. The note with it: for therapeutic activity in acetaminophen induced ALF (in words): mouse, in vivo; for % ALT increase relative to increase with APAP alone Experiment 1 / % ALT increase relative to increase with APAP alone Experiment 2 / Measured ALT values (mean ± S.D.) Experiment 1 / Measured ALT values (mean ± S.D.) Experiment 2: alone or plus NAC (300 mg/kg), at 1 h and 3 h post APAP; for Measured ALT values (mean ± S.D.) Experiment 1 / Measured ALT values (mean ± S.D.) Experiment 2: serum 22 h. Here is the method:
Compound 3b was studied in a sublethal model for acetaminophen (APAP)-induced Liver Injury.
ALF was induced in C57Bl/6 male mice with a single dose of acetaminophen (300 mg/kg) by i.p. injection. […] Serum alanine aminotransferase (ALT) was measured 22 h after APAP injection (n=5 mice for each group). […] ALF was induced in C57Bl/6 male mice with a single dose of acetaminophen (300 mg/kg) by i.p. injection. […] Twenty-two hours after APAP injection serum ALT was measured (indicated in FIG. 11A), centrilobular sections of mouse livers were cut and stained with hematoxylin and eosin, and the percentage of liver necrosis was determined. The data indicates a dose-dependent reduction of ALT levels of 9% to 83% relative to APAP control, and a dose-dependent reduction of necrosis of 0% to 56% relative to APAP control.
ALF was induced in C57Bl/6 male mice with a single dose of acetaminophen (300 mg/kg) by i.p. injection. […] Alanine aminotransferase (ALT) was measured 22 h after APAP injection (n=4 or n=5 mice for each group).
ALF was induced in C57Bl/6 male mice with a single dose of acetaminophen (300 mg/kg) by i.p. injection. […] Twenty-two hours after APAP injection, serum ALT was measured (indicated in FIGS. 12A-12B), centrilobular sections of mouse livers were cut and stained with hematoxylin and eosin, and the percentage of liver necrosis was determined.
ALF was induced in C57Bl/6 male mice with a single dose of acetaminophen (300 mg/kg) by i.p. injection.
FIG. 14 depicts the effect of late treatment with Compound 3b on serum ALT in ALF model. ALF was induced in C57Bl/6 male mice with a single dose of acetaminophen (300 mg/kg) by i.p. injection. At sixteen hours after APAP injection, the animals were treated with different doses of Compound 3b (0.3, 3, 30 or 60 mg/kg). Alanine aminotransferase (ALT) was measured 22 h after APAP injection (n=4 or n=5 mice for each group).
ALF was induced in C57Bl/6 male mice with a single dose of acetaminophen (300 mg/kg) by i.p. injection. […] Experiments 1 and 2 represent two independent experiments. Alanine aminotransferase (ALT) was measured 22 h after APAP injection (n=4 or n=5 mice for each group). The ALT levels and the respective percentage of ALT increase, relative to the increase observed in mice injected with APAP alone, are presented in Table 7.
ALF was induced in C57Bl/6 male mice with a single dose of acetaminophen (300 mg/kg) by i.p. injection. […] Twenty-two hours after APAP injection, serum ALT was measured and centrilobular sections of mouse livers were cut and stained with hematoxylin and eosin.

“Also recorded” adds a separate entry of the source.

Consider “tricarbonyl[tris(isocyanoacetic acid)]Mo(0) [Compound 1b]”, for which the “CO levels in the liver compared with blood, kidney, heart and lung tissues (in words)” value in data set [1] is “no preferential accumulation of CO in the liver”. Besides, the “reduction of necrosis relative to APAP control (in words)” value in data set [2] (60 mg/kg, 1 h after APAP) is given as “does not reduce necrosis”. Besides, the “therapeutic activity in acetaminophen induced ALF (in words)” value (shortened to “therapeutic activity”) in data set [2] is recorded as “lack of activity”.
For the compound `[C-]#[N+]C(C)(C)C(=O)O.[C-]#[N+]C(C)(C)C(=O)O.[C-]#[N+]C(C)(C)C(=O)O.[C-]#[O+].[C-]#[O+].[C-]#[O+].[Mo]` [Compound 3b, tricarbonyl[tris(2-isocyano-2-methyl-propionic acid)]Mo(0)], the “CO levels in the liver compared with blood, kidney, heart and lung tissues (in words)” value in data set [1] is reported as “increased CO levels in the liver”. Also, in data set [1] (50 mg/kg, blood, t=5 min), the “CO concentration as fraction of concentration in blood: Blood, 5 min” value is reported as 1. Besides, the “CO concentration as fraction of concentration in blood: Blood, 20 min” value in data set [1] (50 mg/kg, blood, t=20 min) turned out to be 1. In data set [1] (50 mg/kg, heart, t=5 min), the “CO concentration as fraction of concentration in blood: Heart, 5 min” value was 0.046 ± 0.012. For the same compound, the “CO concentration as fraction of concentration in blood: Heart, 20 min” value in data set [1] (50 mg/kg, heart, t=20 min) was found to be 0.072 ± 0.055. The “CO concentration as fraction of concentration in blood: Kidney, 5 min” value in data set [1] (50 mg/kg, kidney, t=5 min) is 0.419 ± 0.295. In addition, in data set [1] (50 mg/kg, kidney, t=20 min), the “CO concentration as fraction of concentration in blood: Kidney, 20 min” value is on record as 0.074 ± 0.028. Further, in data set [1] (50 mg/kg, liver, t=5 min), the “CO concentration as fraction of concentration in blood: Liver, 5 min” value stood at 5.26 ± 3.18. Further, the “CO concentration as fraction of concentration in blood: Liver, 20 min” value in data set [1] (50 mg/kg, liver, t=20 min) worked out at 0.163 ± 0.062. Further, the “CO concentration as fraction of concentration in blood: Lung, 5 min” value in data set [1] (50 mg/kg, lung, t=5 min) turned out to be 0.049 ± 0.020. In addition, the “CO concentration as fraction of concentration in blood: Lung, 20 min” value in data set [1] (50 mg/kg, lung, t=20 min) came out at 0.060 ± 0.046. The “CO concentration in the liver relative to blood” value in data set [1] (five minutes after i.v. injection) was “five times higher in the liver than in blood”. The “effect of a single dose administered 16 hours after APAP injury (in words)” value in data set [2] (0.3, 3, 30 or 60 mg/kg at 16 h, ALT 22 h after APAP) was “dose-dependent therapeutic effect”. Moreover, in data set [2] (2×60 and 2×120 mg/kg, NAC 2×300 mg/kg, evaluated 22 h post APAP), the “therapeutic effect, 2 doses given at 1 h and 3 h after APAP (in words)” value is given as “highly therapeutic; also recorded: as effective as NAC”. In data set [2] (3b 2 × 60 mg/kg), the “% ALT increase relative to increase with APAP alone Experiment 1” value is on record as 57.2 ± 14.5%, the “% ALT increase relative to increase with APAP alone Experiment 2” value was found to be 45.0 ± 8.1%, the “Measured ALT values (mean ± S.D.) Experiment 1” value turned out to be 5180 ± 1312 U/L and the “Measured ALT values (mean ± S.D.) Experiment 2” value is recorded as 5500 ± 987 U/L. In data set [2] (3b 2 × 120 mg/kg), the “% ALT increase relative to increase with APAP alone Experiment 1” value was found to be 49.5 ± 7.0%, the “% ALT increase relative to increase with APAP alone Experiment 2” value turned out to be 35.7 ± 7.6%, the “Measured ALT values (mean ± S.D.) Experiment 1” value is listed as 4480 ± 630 U/L and the “Measured ALT values (mean ± S.D.) Experiment 2” value is on record as 4360 ± 926 U/L. In addition, in data set [2] (Compound 3b 2×100 or 2×300 mg/kg, NAC 2×300 mg/kg, at one and three hours after APAP, 22 h), the “liver histology: necrosis (in words)” value is “very little if any necrosis”. Besides, in data set [2] (five hours and seven hours after APAP, NAC 150 mg/kg, Compound 3b 120 mg/kg), the “effect on serum ALT when given late after APAP injury (in words)” value is “therapeutic”. In addition, in data set [2], the “therapeutic activity” value is listed as “strong therapeutic activity”.
Take `CC([N+]#[C][Mo-6]([C]#[O+])([C]#[O+])([C]#[O+])([C]#[N+]C(C)C(=O)O)[C]#[N+]C(C)C(=O)O)C(=O)O` (stereo not drawn) [Compound 2b, tricarbonyl[tris(2-isocyanopropionic acid)]Mo(0)]: in data set [1], the “CO levels in the liver compared with blood, kidney, heart and lung tissues (in words)” value is “increased CO levels in the liver”. In addition, the “therapeutic activity” value in data set [2] is given as “still retains therapeutic activity although lower than that of Compound 3b”.
